What all share (assay): inhibition of tumour cell growth, NCI panel, 48 h
Experiment [1] concerns PC-3 prostate.
In experiment [2] the test system is HCT-15 colon.
Experiment [3] has as its system HOP-92 NSCLC.
Experiment [4] has as its system 786-0 renal.
In experiment [5] the test system is BT-549 breast.
The subject of experiment [6] is HOP-18 NSCLC.
For experiment [7], the system named is RPMI-8226 leukemia.
Experiment [8] has as its system A498 renal.
The test system of experiment [9] is M19-MEL melanoma.
In experiment [10] the test system is LOX IMVI melanoma.
The subject of experiment [11] is OVCAR-3 ovarian.
In experiment [12] the test system is U251 CNS.
Experiment [13] deals with SF-295 CNS.
Experiment [14] relates to SK-MEL-5 melanoma.
The subject of experiment [15] is HCC-2998 colon.
Experiment [16] deals with DMS 114 small cell lung.

Each structure is given as a SMILES string. Where “and” joins values, the source holds several entries; their conditions need not be identical. Identical values can stand only once.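 Cells were grown in 96-well plates and exposed to each compound for 48 hours at five concentrations; endpoints were interpolated linearly between bracketing concentrations, or set to the highest concentration if not reached. Here, GI50 denotes the concentration required for 50% inhibition of growth. TGI is the concentration that stops growth completely.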

Regarding `O=C(c1nc2ccc([N+](=O)[O-])cc2[nH]c1=O)C(O)c1ccc2c(c1)OCO2` (centres undefined), the TGI in experiment [1], in [2], in experiment [3], in experiment [4], in experiment [5] and in experiment [6] was above 100 µM each time. For the same compound, the TGI in [7], in experiment [8], in [9], in [10], in experiment [11] and in experiment [12] was above 100 µM each time. Further, the TGI in experiment [13], in experiment [14], in [15] and in experiment [16] was above 100 µM throughout.

`COc1ccc(C(=O)O[C@H]2[C@@H]3C=CO[C@@H](OC4OC(CO)C(O)C(O)C4O)[C@@H]3[C@@]3(CO)O[C@@H]23)cc1O` (some centres undefined): the TGI in [3], in experiment [4], in [7], in experiment [8], in experiment [9] and in [10] was above 100 µM in each case. The TGI in experiment [11], in experiment [12], in experiment [13], in experiment [14], in [15] and in [16] was above 100 µM in each case.

`NC(=S)/N=C(/c1nc2ccc(Cl)cc2[nH]c1=O)C(O)c1ccccc1Cl` (centres undefined): the TGI in [2], in experiment [3], in [4], in [6], in experiment [7] and in experiment [8] was above 100 µM in each case. The TGI in [10], in experiment [12], in experiment [13], in [15] and in experiment [16] was above 100 µM each time.

With `Cc1c2ccncc2cc2c1[nH]c1ccccc12`, the TGI in experiment [2] came to 28.1 µM; in [3] it was 15.2 µM; in experiment [6], 7.35 µM; in experiment [7] it was 8.7 µM; in experiment [8], 12.2 µM; in experiment [9], 10.9 µM. The TGI in experiment [10] is 7.35 µM; in [11], 25.8 µM; in experiment [12], 7.65 µM; in experiment [13], 16.9 µM; in experiment [14], 11.2 µM; in [15], 15.7 µM. The TGI in experiment [16] stood at 16.9 µM.

For the compound `NC1=C(NC(=O)Cc2ccccc2F)C(=O)c2ccccc2C1=O`, the TGI was above 100 µM in experiment [2]; 98.1 µM in [3]; 98.2 µM in experiment [4]; above 100 µM in [6]; above 100 µM in experiment [7]; 24.5 µM in experiment [9]. For the same compound, the TGI in experiment [11] is 66.9 µM; in experiment [12], above 100 µM; in [13] it was above 100 µM; in experiment [15] it was above 100 µM; in experiment [16], above 100 µM.

For `CN(Cc1cnc2nc(N)nc(N)c2n1)c1ccc(C(=O)N[C@@H](CCC(=O)O)C(=O)O)cc1`, the TGI was above 250 µM in [1]; above 250 µM in experiment [2]; 229 µM and > 250 µM in [3]; above 250 µM in [4]; above 250 µM in experiment [5]; above 250 µM in experiment [7]. The TGI in [8] is 116 µM; in experiment [9] it was above 250 µM; in experiment [10], above 250 µM; in [11], 217 µM and > 250 µM; in experiment [12] it was above 250 µM; in experiment [13] it was 231 µM and > 250 µM. Besides, the TGI in experiment [14] was 179 µM and > 250 µM; in experiment [15], 191 µM and > 250 µM; in experiment [16], 191 µM. For the same compound, the GI50 in [6] is 0.714 pM; in experiment [8], 1.05 µM.

Take `CCC1(N=[N+]=[N-])C(=O)c2ccccc2N(C)C1=O` (centres undefined): the TGI in experiment [2], in experiment [3], in experiment [4], in experiment [6], in experiment [8] and in experiment [9] was above 100 µM throughout. For the same compound, the TGI in experiment [10], in experiment [11], in experiment [12], in experiment [13], in experiment [14] and in [15] was above 100 µM in each case. The compound further yielded a TGI in experiment [16] above 100 µM.

Turning to `[N-]=[N+]=NC(c1cn(C2CC(O)C(CO)O2)c(=O)[nH]c1=O)C(Br)Br` (centres undefined), the TGI in [2], in experiment [3], in [4], in [6], in experiment [7] and in experiment [9] was above 100 µM throughout. Moreover, the TGI in experiment [10], in experiment [11], in experiment [12], in experiment [13], in [14] and in experiment [15] was above 100 µM in each case. This compound showed a TGI in [16] above 100 µM.

Regarding `Brc1ccc(C[P+]2(c3ccccc3)CCCCC2)cc1`, the TGI was above 100 µM in experiment [2]; above 100 µM in experiment [4]; above 100 µM in experiment [6]; above 100 µM in experiment [7]; above 100 µM in [8]; 76.4 µM in [9]. The TGI in experiment [10] was above 100 µM; in experiment [11], above 100 µM; in experiment [12], above 100 µM; in [13], above 100 µM; in [14], 39.1 µM; in experiment [15], above 100 µM. In addition, in experiment [16], the TGI was above 100 µM.

Take `COc1ccc(C(c2c(O)c3ccccc3n(-c3ccccc3)c2=O)c2c(O)c3ccccc3n(-c3ccccc3)c2=O)cc1`: the TGI in experiment [2], in [3], in experiment [4], in [6], in [7] and in experiment [9] was above 100 µM each time. Also, the TGI in experiment [10], in [11], in [12], in experiment [14], in experiment [15] and in experiment [16] was above 100 µM in each case.

Regarding `CCN(CC)CCCNc1ccc2nc(C)n3c4ccc(O)cc4c(=O)c1c23`, the TGI in experiment [1] is 12.6 µM; in experiment [2], 15.6 µM; in experiment [3] it was 11.4 µM; in experiment [4], 16.8 µM; in experiment [5], 25.6 µM; in [6], 25.7 µM. Further, the TGI in [7] was found to be 10.8 µM; in experiment [8], 24.5 µM; in experiment [9], 23.8 µM; in experiment [10], 3.71 µM; in experiment [11], 21.6 µM; in experiment [12] it was 21 µM. Further, the TGI in [13] is 19.6 µM; in experiment [14], 24.5 µM; in experiment [15], 22.6 µM; in [16] it was 21.5 µM.

For the compound `CN(C(=O)C12C3C4C5C3C1(C(=O)C13C6C7C8C6C1C8C73)C5C42)C(C)(C)C` (centres undefined), the TGI is above 32.2 µM in experiment [2]; above 50 µM in experiment [3]; above 50 µM in [4]; above 50 µM in [6]; above 42.9 µM in experiment [7]; above 50 µM in [8]. Moreover, the TGI is above 50 µM in experiment [9]; above 29.7 µM in experiment [10]; above 50 µM in experiment [11]; above 50 µM in experiment [12]; above 50 µM in experiment [13]; above 50 µM in experiment [14]. The TGI in experiment [15] is above 50 µM; in experiment [16], above 37.6 µM.

Consider `N#CN/C(N)=N/C/N=C(\N)NC#N`, for which the TGI was 50.2 µM in [2]; above 100 µM in [3]; 60.8 µM in [4]; above 100 µM in experiment [6]; above 100 µM in [7]; above 100 µM in experiment [8]. For the same compound, the TGI in [9], in experiment [11], in experiment [12], in experiment [13], in experiment [14] and in [15] was above 100 µM in each case. The TGI in experiment [16] is above 100 µM.
